Each structure is given as a SMILES string.

For one experiment, the system named is Hmgcs2-null ISCs. Kind of experiment: Organoid-forming assay with Hmgcs2-null crypts/ISCs. It is filed as cell-based, mouse. The conditions noted are these: for organoid-forming capacity of Hmgcs2-null ISCs: lactate at comparable concentrations, day-5-to-7 organoids. The source says:
FIGS. 11A-11N. Characterization of fatty acid oxidation (FAO) and ketogenesis in intestinal crypts. Related to FIG. 4. FIG. 11A, Schematic of the mouse model for intestinal Cpt1a deletion with the timeline for tamoxifen (TAM) injections and tissue collection. FIG. 11B, Immunohistochemistry (IHC) for CPT1a (rate limiting step of FAO) and FIG. 11C, HMGCS2 levels in WT and intestinal Cpt1a loss. Images represent one of 5 biological replicates per group. FIG. 11D, βOHB levels in Cpt1a-null intestinal crypts. n=8 measurements for 4 mice per group. […] The image represents one of 8 biological replicates. FIG. 11F, IHC for HMGCS2, indicating intact HMGCS2 expression in the absence of Paneth cell. The image represents one of 8 biological replicates. For FIGS. 11C-11F, Scale bar: 50 um. FIG. 11G, Schematic of the mouse model for intestinal Hmgcs2 deletion with the timeline for TAM injections and tissue collection. FIG. 11H, Hepatic and intestinal HMGCS2 expression by IHC and FIG. 11I, serum βOHB levels in Hmgcs2-KO mice. FIG. 11J, Intestinal CPT1a expression in mice with conditional intestinal loss of Hmgcs2 by IHC, Scale bar: 100 um. The image represents one of 5 biological replicates. […] FIG. 11L, Organoid-forming assay for number of organoids per intestinal crypt, numbers of Alcian blue^+ goblet cells (black arrows) and percentage of tdTomato^+ area per organoid from WT and Hmgcs2-KO (−/−) ISCs, ±βOHB treatments: +, 10 uM and ++50 uM. Representative images: day-5-to-7 organoids. Scale bar: 50 μm. n=5 mice. […] N, Synthesis of glycerol tri((R)-3-hydroxybutyrate).
As previously reported and briefly summarized here (Mihaylova et al., 2018), small intestines were removed, washed with cold PBS, opened longitudinally and then incubated on ice with PBS plus EDTA (10 mM) for 30-45 min. Tissues were then moved to PBS. Crypts were then mechanically separated from the connective tissue by shaking or by scraping, and then filtered through a 70-μm mesh into a 50-mL conical tube to remove villus material and tissue fragments. Isolated crypts for cultures were counted and embedded in Matrigel™ (Corning 356231 growth factor reduced) at 5-10 crypts per μL and cultured in a modified form of medium as described previously (Sato et al., 2009; Yilmaz et al., 2012). Unless otherwise noted, crypt culture media consists of Advanced DMEM (Gibco) that was supplemented with EGF 40 ng mL^−1 (PeproTech), Noggin 200 ng mL^−1 (PeproTech), R-spondin 500 ng mL^−1 (R&D, Sino Bioscience or (Ootani et al., 2009)), N-acetyl-L-cysteine […] (Sigma-Aldrich), N2 1× (Life Technologies), B27 1× (Life Technologies), CHIR99021 3 μM (LC laboratories), and Y-27632 dihydrochloride monohydrate 10 μM (Sigma-Aldrich). Intestinal crypts were cultured in the above-mentioned media in 20-25 μL droplets of Matrigel™ were plated onto a flat bottom 48-well plate (Corning 3548) and allowed to solidify for 20-30 minutes in a 37° C. incubator. Three hundred microliters of crypt culture medium was then overlaid onto the Matrigel™, changed every three days, and maintained at 37° C. in fully humidified chambers containing 5% CO2. Clonogenicity (colony-forming efficiency) was calculated by plating 50-300 crypts and assessing organoid formation 3-7 days or as specified after initiation of cultures. β-Hydroxybutyrate (Sigma, 54965), Quisinostat (JNJ-26481585) 2HCl (Selleckchem, S1096), Entinostat (MS-275) (Selleckchem, S1053), Trichostatin A (Selleckchem, 51045) and γ-secretase inhibitor MK-0752 (Cayman Chemical Company, 471905-41-6) were added into cultures as indicated in the figure legends. Plasmids for Hdac1 CRISPR-deletion (sc-436647), Cre-expression (sc-418923), Cre-expression and Hmgcs2 CRISPR-deletion (VB180615-1103gue) were used for organoid transfection according to manufacturers' instructions.
If not directly used for cultures, crypts were then dissociated into single cells and sorted by flow cytometry. […]

The subject of the next experiment is Hes1-GFP organoids. Put plainly: Hes1-GFP organoid reporter assay (GFP by flow cytometry). It is filed as cell-based, mouse. The conditions noted are these: GSI 10 uM, βOHB 50 uM, JNJ-26481585 0.2 nM; compared to control. On the procedure:
FIGS. 5A-5G show βOHB-mediated HDAC inhibition enhances NOTCH signaling. FIG. 5A, Violin plots of genes related to FIG. 12A: Notch receptor Notch1, Class I HDAC genes: HDAC1/2/3 and Notch target Hes1, based on a previously published scRNA-Seq data (Haber et al., 2017). FIG. 5B, Representative flow cytometry plots (top) and quantification of GFP expression (bottom) Hes1-GFP+ primary organoids exposed to γ-secretase inhibitor (GSI, 10 uM), βOHB (50 uM) and HDAC inhibitor (JNJ-26481585, 0.2 nM), compared to control condition. n=6 samples per treatment from n=3 mice. FIG. 5C, Organoid-forming assay for intestinal crypts isolated from WT and Hmgcs2-KO mice, with combinations of HDAC inhibitor JNJ-26481585 (JNJ) or βOHB treatments or Notch receptor inhibitor (GSI, gamma secretase inhibitor). Quantification and representative images: day-5-to-7 organoids. n=4 mice. Scale bar: 500 μm. Arrows indicate organoids and asterisks indicate aborted crypts. FIG. 5D, Schematic (top) of the mouse model including the timeline of tamoxifen (TAM) and HDACi (JNJ) injection and tissue collection. Nuclear NICD, a measure of Notch activation, by immunofluorescence (IF). […] FIG. 5E, Quantification of OLFM4^+ stem cells, LYZ+ Paneth cells and AB/PAS+ goblet cells in proximal jejunal crypts by IHC. […] FIG. 5G, Quantification and representative images of tdTomato+ Lgr5^+ ISC-derived lineage (cell progenies) by IHC. […] For box-and-whisker plots (FIG. 5C) data were expressed as box-and-whisker 10 to 90 percentiles, Data in bar graph (FIG. 5D) and dot plot (FIG. 5E and FIG. 5G) are expressed as mean+/−s.e.m. *p<0.05, **p<0.01, ***p<0.005, ****p<0.0001. […]
As previously reported and briefly summarized here (Mihaylova et al., 2018), small intestines were removed, washed with cold PBS, opened longitudinally and then incubated on ice with PBS plus EDTA (10 mM) for 30-45 min. […] Isolated crypts for cultures were counted and embedded in Matrigel™ (Corning 356231 growth factor reduced) at 5-10 crypts per μL and cultured in a modified form of medium as described previously (Sato et al., 2009; Yilmaz et al., 2012). […]
For orientation: In a reporter assay the amount or activity of a reporter protein is the signal.

Another experiment has as its system intestinal crypts. Kind of experiment: HDAC inhibitor treatment of Hmgcs2-null mice, crypt histology (NICD, H3K27ac, OLFM4, LYZ, AB/PAS). Particulars: 1 mg/kg, 5 i.p. injections. It is filed as in vivo, mouse.
Another experiment relates to Lgr5+ ISCs. Kind of experiment: Intestinal regeneration after irradiation in Hmgcs2-KO mice (Lgr5 lineage tracing). Format: in vivo, mouse. The conditions noted are these: Hmgcs2-null mice; 1 mg/kg, 5 i.p. injections; XRT 7.5 Gy×2.
The test system of the next experiment is class I HDACs. The conditions noted are these: reported (Shimazu et al., 2013); cited from earlier work.

Source text for Lgr5+ ISCs: FIG. 4F, Schematic (top) of the mouse model including the timeline of tamoxifen (TAM) injection, oral administration of nanoparticle PLGA encapsulated βOHB or non-encapsulated βOHB oligomers, irradiation (XRT, 7.5 Gy×2) and tissue collection. Quantification (bottom) and representative images (right) of tdTomato+ Lgr5^+ ISC-derived lineage (cell progenies) by IHC. Scale bar: 100 μm. n>25 crypts per measurement, n>5 measurements per mouse and n>3 mice per group. […] Data in dot plots were expressed as mean+/−s.e.m. *p<0.05, **p<0.01, ***p<0.005.

As to `O=C(O)CC[C@H]1CC[C@@](c2cc(F)ccc2F)(S(=O)(=O)c2ccc(Cl)cc2)CC1` [GSI, MK-0752], in the experiment on Hmgcs2-null ISCs (GSI added to βOHB or JNJ treated cultures), the “restoration of organoid-forming capacity of Hmgcs2-null crypts by βOHB or JNJ under NOTCH blockade” value was “prevented the ability of either βOHB or JNJ HDAC inhibitor”. Also, in the experiment with Hes1-GFP organoids, the “GFP expression of Hes1-GFP organoids (NOTCH target gene expression)” value (“GFP expression of Hes1-GFP organoids” below) is recorded as “dampened GFP expression”.
For the compound `Nc1ccccc1NC(=O)c1ccc(CNC(=O)OCc2cccnc2)cc1` [MS-275, Entinostat (MS-275)], the values for the Hmgcs2-null organoid function result in the experiment on Hmgcs2-null ISCs (10-to-100 nM) and with Hmgcs2-null ISCs (doses beyond 10-to-100 nM) were “rescued” and “failed to do so”, respectively.
`Cn1cc(CNCC2CCN(c3ncc(C(=O)NO)cn3)CC2)c2ccccc21` [Quisinostat, Quisinostat (JNJ-26481585) 2HCl]: in the experiment on intestinal crypts, the “decline in ISCs numbers (OLFM4+ stem cells)” value was “rescued”, the “decrease in numbers of H3K27ac or NICD positive crypt cell nuclei” value was “prevented these changes” and the “expansion of secretory cell types” value is listed as “rescued”. Moreover, the “ISC function after injury” value with Lgr5+ ISCs is reported as “rescued”. For the same compound, the “crypt organoid-forming capacity of Hmgcs2-null crypts” value in the experiment with Hmgcs2-null ISCs (HDAC inhibitor at a dose shown to block HDAC1 activity, alone or with βOHB) is listed as “rescued crypt organoid-forming capacity”. In addition, the “GFP expression of Hes1-GFP organoids” value in the experiment on Hes1-GFP organoids is “increased GFP expression”.
On to `CC(O)C(=O)O` (centres unmarked) [lactate], for which the “organoid-forming capacity of Hmgcs2-null ISCs” value is “not” in the experiment with Hmgcs2-null ISCs (βOHB 10 uM and 50 uM); “did not affect” in the experiment with Hmgcs2-null ISCs (βOHB 10 uM and 50 uM, listed as Lactate).
Consider `CC(O)CC(=O)O` (stereo not drawn) [βOHB, β-hydroxybutyrate], for which, in the experiment with Hmgcs2-null ISCs (βOHB 10 uM and 50 uM, Alcian blue+ goblet cells), the “secretory lineage bias of Hmgcs2-null organoids” value is “rectified”. In addition, the “organoid-forming capacity of Hmgcs2-null ISCs” value in the experiment with Hmgcs2-null ISCs (βOHB 10 uM and 50 uM) was “rectified”. In addition, the “generation of tdTomato+ clones by Hmgcs2-null ISCs” value in the experiment with Hmgcs2-null ISCs (βOHB 10 uM and 50 uM, tdTomato+ area per organoid) is “rectified”. Also, the “GFP expression of Hes1-GFP organoids” value with Hes1-GFP organoids was “increased GFP expression”. Further, in the experiment on class I HDACs, the “inhibition of class I HDACs” value was “endogenous inhibitor for class I HDACs”.

Source of the values: patent US11266617B2, “Beta-hydroxybutyrate encapsulated PLGA nanoparticle compositions” (Massachusetts Institute of Technology, priority 2018, dated 2022).
